In patent US7780859B2, “Uncoupling agents” (Rhodia Operations, priority 2003, dated 2010):
Read-outs that look alike come from different tables or passages of the source.

Key:
[1] = tested on: municipal activated sludge; assay: Laboratory screening test for growth uncoupling by oxygen consumption pattern analysis (Oxitop BOD system); details: test biocides at 1, 2.5, 5, 10 and 25 mg/l; 2,4-dinitrophenol at 20 mg/l; 7 days at 20° C.
Source text: A laboratory screening test was developed to determine the impact of chemical compounds on respiration parameters through an oxygen consumption pattern analysis using a model based on published work by Monod and Pirt^1. Growth uncoupling is characterised by an increase in oxygen consumption during bacterial growth in a synthetic growth medium. 1. Monod J. 1950, Ann Inst Pasteur, “La Technique de Culture Continue, Theorie et Applications”, 79:390-410. Monod J. 1942, “Recherches sur la Croissance des Cultures Bactériennes”. Paris Herman p. 210. Pirt S J. (1965) “The Maintenance Energy of Bacteria In Growing Cultures”. Proceedings of the Royal Society of London B 163, 224-231. “Principles of Water Quality Management”. Ed: W. W. Eckenfelder, Jr. CBI Publishing Company, Inc USA. […]
For the evaluation of proposed water-soluble biocides, the oxygen consumption kinetics are measured and, a process of computer iteration optimises the equation coefficients optimised to fit the oxygen consumption curve.
From the optimised coefficients, the degree of bacterial uncoupling can be calculated. […]
Three conventional water treatment biocides were evaluated as bacterial water-soluble biocides. […]
Based on the liquid sludge, 2,4-dinitrophenol was dosed at 20 mg/l, this being the known level at which significant uncoupling would result. The test biocides were each evaluated at 1, 2.5, 5, 10 and 25 mg/l. […]

sludge microorganisms [2] = details: 4 mg/l/day, pre-dilution, 52 days
Experimental: The equipment used in this test sequence was identical to that used for example 1 except that the reactor was not fitted with a recirculating line for flash mixing.
The procedure was identical to that used for example 1 except that the method of dosing Compound X was different. In this case, 5 grams of Compound X was mixed into a solution containing 5 grams of sodium hydrogen carbonate in 1 liter of deionised water. 4.0 ml of this solution was added to 500 ml of clarified wastewater which had been extracted from the bioreactor. The treated clarified wastewater was then returned to the bioreactor and normal operation of the bioreactor was resumed. The final concentration of Compound X in the bioreactor therefore equates to 4 mg per liter. This procedure was conducted daily, 5 times per week.
The experiment was conducted in parallel with example 1, i.e. for 52 days before decommissioning the system.
A Compound X concentration of 4 milligrams per liter per day was used.

sludge microorganisms [3] = details: for Growth Yield / Specific Activity / Growth Yield Reduction: flash mixing, 52 days; for Growth Yield Reduction: vs untreated control
Source text: A series of semi-continuous chemostat reactors was constructed to simulate wastewater treatment processes.
The central part of the equipment is the biological chemostat reactor 1. The reactor vessel 2 is made of glass, with an internal volume of 10 liters and is fitted with pH 3 and dissolved oxygen 4 sensors and an air sparge 5. This contains the sludge, which is, essentially, a mass of typical wastewater treatment microorganisms. The reactor operates at an ambient temperature (approximately 20° C.).
Simulated wastewater 13 is contained in a separate vessel 6 and maintained at 4° C. to prevent microbial spoilage. It is transferred into the reactor via a supply line 7 and a peristaltic pump 8.
A recirculating line 9 is provided on the reactor comprising a length of flexible silicone tubing and a peristaltic pump 10. The peristaltic pump extracts the sludge from the reactor into the recirculation line. The candidate water-soluble biocide is introduced into this line 9 through a needle 11, which is fed by a syringe pump 12. Using this system it is possible to achieve “flash mixing” which ensures rapid contact of the water-soluble biocide with the sludge microorganisms. The internal diameter of the recirculating line was 8 mm and the flow velocity was 0.5 meters per second, which gave a contact time, between candidate water-soluble biocide and sludge of 3 seconds before it re-entered the reactor.
Treated effluent 17 is removed from the reactor into a collecting vessel 16 via an outlet line 15.
The reactor was charged with sludge obtained from the Municipal wastewater treatment works at Courly-Lyon, in France. This sludge provided the “seed” to start the process off. The reactor was then filled, to the 5 liter mark, with simulated wastewater, adjusted to approximately pH 7.5, and aeration was commenced.
Each weekday (i.e. 5 times per week), 13.3% of the bioreactor contents were withdrawn to maintain the equilibrium. This ensured a sludge age in the region of 7.5 days.
Also, each weekday, after the adjustments described in the preceding paragraph, candidate water-soluble biocide (as a dilute solution) was injected into the system via the flash mixing recirculating line. The dilute solution was prepared by dissolving 10 grams of sodium hydrogen carbonate in approximately 900 ml of deionised water then adding 5 grams of candidate water-soluble biocide and mixing well. The mixture was then made up to 1 liter with deionised water. The appropriate volume of this dilute solution was injected to achieve the required dose level.
The experiment was conducted for 52 days before decommissioning the system.
Compound X was evaluated in the test. This compound is a 75% aqueous solution of tetrakis(hydroxymethyl)phosphonium sulphate (THPS). Two concentrations were evaluated: 2 and 4 milligrams per liter per day.

Row | Compound | level of uncoupling (percentage uncoupling, FIG. 4) [1] | Growth Yield (sludge microorganisms [2]) [g MLSS/g COD] | Specific Activity (sludge microorganisms [2]) [g COD/g MLSS.d] | Growth Yield Reduction (sludge microorganisms [2]; vs untreated control) [%] | Growth Yield (sludge microorganisms [3]; 2 mg/l/day) [g MLSS/g COD] | Specific Activity (sludge microorganisms [3]; 2 mg/l/day) [g COD/g MLSS.d] | Growth Yield Reduction (sludge microorganisms [3]; 2 mg/l/day) [%] | Growth Yield (sludge microorganisms [3]; 4 mg/l/day) [g MLSS/g COD] | Specific Activity (sludge microorganisms [3]; 4 mg/l/day) [g COD/g MLSS.d] | Growth Yield Reduction (sludge microorganisms [3]; 4 mg/l/day) [%] | sludge growth (sludge microorganisms [3]; flash treatment, low dose levels) | concentration of protozoans and other higher organisms in the sludge (sludge microorganisms [3]; treated sludge relative to untreated) | filamentous bacteria in the sludge (sludge microorganisms [3]; treated systems vs untreated control)
1 | CCCCCCCCCCCC[N+](C)(C)C.[Cl-] [C, Dodecyltrimethylammonium chloride] | greater levels of uncoupling at significantly lower dose levels than the conventional water-soluble biocide, 2,4-dinitrophenol |  |  |  |  |  |  |  |  |  |  |  | 
2 | tetrakis(hydroxymethyl)phosphonium sulphate [Compound X] |  | 0.201 | 0.636 | 26.4 | 0.202 | 0.582 | 27.7 | 0.167 | 0.772 | 37.6 | significantly reducing sludge growth | significantly higher concentration | substantially absent
